Source: the NIST ThermoML archive (doi:10.1021/je200883w)

Conditions: 101.33 kPa, Liquid; for viscosity: Concentric cylinders viscometry; for mass density: Vibrating tube method

CCCC[N+]1(C)CCCC1.FC(F)(F)C(F)(F)[P-](F)(F)(F)(C(F)(F)C(F)(F)F)C(F)(F)C(F)(F)F
Conditions | mass density [kg/m3] | viscosity [mPa·s]
283.15 K | 1599.8 | 593.7
288.15 K | 1594.2 | 409.8
293.15 K | 1588.6 | 291.5
298.15 K | 1583.2 | 213.1
303.15 K | 1577.9 | 159.61
308.15 K | 1572.6 | 122.18
313.15 K | 1567.4 | 95.36
318.15 K | 1562.1 | 75.75
323.15 K | 1556.9 | 61.13
328.15 K | 1551.7 | 50.03
333.15 K | 1546.6 | 41.48
338.15 K | 1541.5 | 34.79
343.15 K | 1536.3 | 29.49
348.15 K | 1531.1 | 25.24
353.15 K | 1525.7 | 21.79
358.15 K | 1520.4 | 18.97
363.15 K | 1515.3 | 16.63
368.15 K | 1510.4 | 14.68
373.15 K | 1505.5 | 13.04

CCCCCCCCCCCCCC[P+](CCCCCC)(CCCCCC)CCCCCC.FC(F)(F)C(F)(F)[P-](F)(F)(F)(C(F)(F)C(F)(F)F)C(F)(F)C(F)(F)F
Conditions | mass density [kg/m3] | viscosity [mPa·s]
268.15 K | 1207.4 | 3067.3
273.15 K | 1203.2 | 2010
278.15 K | 1198.9 | 1345.2
283.15 K | 1194.6 | 928.39
288.15 K | 1190.3 | 654.2
293.15 K | 1186 | 471.76
298.15 K | 1181.7 | 347.06
303.15 K | 1177.6 | 260.12
308.15 K | 1173.5 | 198.3
313.15 K | 1169.4 | 153.61
318.15 K | 1165.3 | 120.76
323.15 K | 1161.3 | 96.23
328.15 K | 1157.3 | 77.68
333.15 K | 1153.3 | 63.45
338.15 K | 1149.3 | 52.39
343.15 K | 1145.3 | 43.71
348.15 K | 1141.2 | 36.8
353.15 K | 1137 | 31.27
358.15 K | 1132.7 | 26.79
363.15 K | 1128.7 | 23.12
368.15 K | 1124.9 | 20.09
373.15 K | 1121.1 | 17.57

CCCCCCOS(=O)(=O)[O-].CC[n+]1ccn(C)c1 [3-ethyl-1-methyl-1H-imidazolium hexyl sulfate]
Conditions | mass density [kg/m3] | viscosity [mPa·s]
268.15 K | 1151.4 | 3425.9
273.15 K | 1147.9 | 2124.1
278.15 K | 1144.4 | 1362.1
283.15 K | 1140.9 | 904.77
288.15 K | 1137.4 | 620.25
293.15 K | 1133.8 | 437.53
298.15 K | 1130.4 | 316.78
303.15 K | 1127 | 234.83
308.15 K | 1123.7 | 177.81
313.15 K | 1120.5 | 137.23
318.15 K | 1117.2 | 107.82
323.15 K | 1114 | 86.06
328.15 K | 1110.8 | 69.71
333.15 K | 1107.6 | 57.21
338.15 K | 1104.4 | 47.52
343.15 K | 1101.2 | 39.91
348.15 K | 1097.9 | 33.86
353.15 K | 1094.5 | 29
358.15 K | 1091.2 | 25.04
363.15 K | 1088.1 | 21.8
368.15 K | 1085.1 | 19.11
373.15 K | 1082.3 | 16.87

CCCCn1cc[n+](C)c1C.O=S(=O)([N-]S(=O)(=O)C(F)(F)F)C(F)(F)F
Conditions | mass density [kg/m3] | viscosity [mPa·s]
273.15 K | 1443.3 | 518.55
278.15 K | 1438.4 | 353.44
283.15 K | 1433.5 | 249.26
288.15 K | 1428.7 | 180.5
293.15 K | 1424 | 134.22
298.15 K | 1419.4 | 102.19
303.15 K | 1414.8 | 79.46
308.15 K | 1410.1 | 62.97
313.15 K | 1405.5 | 50.76
318.15 K | 1401 | 41.53
323.15 K | 1396.4 | 34.45
328.15 K | 1391.8 | 28.91
333.15 K | 1387.3 | 24.54
338.15 K | 1382.8 | 21.03
343.15 K | 1378.4 | 18.17
348.15 K | 1373.9 | 15.83
353.15 K | 1369.3 | 13.9
358.15 K | 1364.4 | 12.3
363.15 K | 1359.8 | 10.94
368.15 K | 1355.5 | 9.794
373.15 K | 1351.3 | 8.813
